Assay results: patent US6939303B2, “Method and system of determining cardiac contractility” (Provecto Tecnico R-2000, Ca, priority 1999, dated 2005)
“And” between values parts separate entries of the source, which are not always exact repeats. Equal entries are not always repeated. Where two headings read alike, the source gives them in different places.

Tests used:
[1] = system: patients with coronary artery disease; settings: load modifications; cited from earlier work
[2] = system: normal subjects; test: Cardiac contractility with methoxamine and dobutamine, echocardiographic data of Borow et al. (Example 4); type: in vivo, human; settings: ten normal subjects
Protocol: (§1) The capability of the method of the present invention to assess cardiac contractility was evaluated using data from several experiments published in the literature and suitable for analysis. In this approach, afterload in the method was expressed as systolic pressure. Since different methodologies to measure cardiac contractility were used, the comparison between them was attained by analyzing the amount of changes (delta values) and were statistically treated using paired t test, ANOVA, correlation, and agreement between methods when applicable, as, for example, described in Lancet, Vol. 1, pages 307 to 310 (1986) by Bland et al.
Cardiovascular data was utilized from “Sensitivity of End-Systolic Pressure-Dimension and Pressure-Volume Relations to the Inotropic State in Humans,” Circulation, Vol. 65, pages 988 to 997 (1982) by Borow et al. Ten normal subjects were studied echocardiographically.

[3] = system: normal subjects; settings: ten normal subjects; cited from earlier work
[4] = system: patients with coronary artery disease; test: Cardiac contractility with methoxamine and nitrates, data of Mehmel et al. (Example 6); type: in vivo, human; settings: load modifications
Protocol: as §1
Cardiovascular data was utilized from “The Linearity of the End-Systolic Pressure-Volume Relationship in Man and its Sensitivity for Assessment of Left Ventricular Function,” Circulation, Vol. 63, pages 1216 to 1222 (1981) by Mehmel et al. This study was performed in patients with coronary artery disease and with catheter-tip manometer and ventricular angiogram measurements.

[5] = system: Conscious Dogs; test: Contractile state with dobutamine and verapamil, data of Little et al. (Example 12); type: in vivo, dog; settings: for Method of This Invention Avg. Value: Example 12, animals, control 100.0; for Change in contractile state, method of this invention: dogs
Protocol: as §1
Cardiovascular data was utilized from “Response of the Left Ventricular End-Systolic Pressure-Volume Relation in Conscious Dogs to a Wide Range of Contractile States,” Circulation, Vol. 78, pages 736 to 745 (1988) by Little et al. In this study, the contractile state was increased by dobutamine and decreased by verapamil.

[6] = system: Conscious Dogs; settings: cited from earlier work; for ESP/ESV Avg. Value / EF Avg. Value: Example 12, animals; for EF Avg. Value: ejection fraction; for Change in contractile state, ESP/ESV / Change in contractile state, dP/dt / Change in contractile state, ejection fraction: dogs
[7] = system: patients, most of them with coronary artery disease; design: After_v, afterload (systolic pressure): unit not given beside the values; settings: cited from earlier work; for Alteration in cardiac contractility, ESP/ESV / Alteration in cardiac contractility, ejection fraction: change vs control
[8] = system: patients, most of them with coronary artery disease; test: Cardiac contractility under load or inotropic drugs, data of Takeuchi et al. (Examples 1 and 3); type: in vivo, human; design: key to C, cardiac contractility calculated with the method of this invention: relative contractility scale; control state C = 100; settings: for Alteration in cardiac contractility, method of this invention: change vs control
Protocol: as §1
Hemodynamic data was utilized from Takeuchi et al. (“Single-Beat Estimation of the Slope of the End-Systolic Pressure-Volume Relation in the Human Left Ventricle”. Circulation, Vol. 83, pages 202 to 212 (1991)).
Initially, to calibrate the model of the method of this invention, the average normal (or control state) values were used: • Preload (end-diastolic volume)=70 (Pre_adj) • Afterload (Systolic pressure)=109 (After_adj) • Stroke volume (SV)=40 (SV_adj) • Cardiac contractility (C)=100 (C_adj) Thereafter, the C value in each case during angiotension infusion was calculated using its corresponding value of preload, afterload and stroke volume. For instance, for the first case receiving angiotenison, where:
The first step was to obtain the edge value for the tetrahedron for the control state using the standard mathematical equation for the volume of a tetrahedron: Edge=^3{overscore (6*sv—adj)} Therefore, for the control state, Edge=^3{overscore (6*40)}=6.214465 The next step was to obtain the unitary (u) values of preload (pre_u) and afterload (after_u).
Pre—u=68*(6.214465/70)=6.036908 [formula] In order to obtain the unitary (u) value of C, using the equation derived herein for cardiac contractility [formula] Therefore, the value of C (C_v) for Case 1 is: [formula] Thus, during angiotensin treatment, the corresponding C values for Cases 1 to 8 were calculated using the method of this invention to be as follows: […]
Cardiovascular data was utilized from “Single-beat Estimation of the Slope of the End-Systolic Pressure-Volume Relation in the Human Left Ventricle,” Circulation, Vol. 83, pages 202 to 212 (1991) by Takeuchi et al. This study involved 25 patients, most of them with coronary artery disease. […] Hemodynamic modifications were measured with high-fidelity micromanometer and ventriculography. […] The increase in cardiac contractility using dobutamine induced changes measured by the method of this invention was 23% in comparison to the measurements made with ejection fraction of 15% and with ESP/ESV of 32%.

[9] = system: Conscious Dog; settings: cited from earlier work; for Vcf Avg. Value (velocity of shortening) / dP/dT Avg. Value: Example 13, animals; for Change, Vcf / Change, dP/dt / Change, dP/dt DP40: conscious dog
[10] = system: Conscious Dog; test: Changes in preload, afterload and inotropic state, data of Mahler et al. (Example 13); type: in vivo; settings: for Method of This Invention Avg. Value: Example 13, animals, control 100.0; for Change, method of the present invention: conscious dog
Protocol: as §1
Cardiovascular data was utilized from “Effects of Changes in Preload, Afterload and Inotropic State on Ejection and Isovolumic Phase Measures of Contractility in the Conscious Dog,” Am. J. Cardiol., Vol. 35, pages 623 to 634 (1975) by Mahler et al. In this study, increase in preload was attained by Ringer's solution infusion, and rise of blood pressure with phenylephrine administration. […] The method of this invention was less sensitive than the other indices to measure changes in the inotropic state induced with isoproterenol or propranolol.

[11] = system: patients with hyperthyroidism; settings: administration of propranolol; cited from earlier work
[12] = system: patients with hyperthyroidism; test: Cardiac contractility with propranolol, data of Merillon et al. (Example 8); type: in vivo, human; settings: administration of propranolol
Protocol: as §1
Cardiovascular data was utilized from “Left Ventricular Function and Hyperthyroidism,” Br. Heart J., Vol. 46, pages 137 to 143 (1981) by Merillon et al. In patients with hyperthyroidism and invasive assessment of ventricular function, the administration of propranolol produced a fall in cardiac contractility. This change was similar when the inotropic state was assessed by means of P/V ratio (−28%), ejection fraction (−19%), dP/dt (−20%), and dP/dt/TP (−19%). Use of the method of the present invention gave a value for the change in cardiac contractility of −17%.

[13] = system: normal subjects and patients with coronary artery disease; settings: cited from earlier work
[14] = system: normal subjects and patients with coronary artery disease; test: Cardiac contractility with phenylephrine, data of El-Tobgi et al. (Example 5); type: in vivo, human
Protocol: as §1
Cardiovascular data was utilized from “Left Ventricular Function in Coronary Artery Disease,” J. Am. Coll. Cardiol., Vol. 3, pages 781 to 788 (1984) by El-Tobgi et al. In this study, normal subjects (group I) were compared with two groups of patients with coronary artery disease (groups II and III, the last one with ventricular dysfunction) and studied with tip-manometer catheter and ventriculography measurements. In basal conditions, the method of this invention behaves similar to the ejection fraction in detecting depression in cardiac contractility in group III (−17.2% and −18.0%, respectively).

[15] = group I (normal subjects), increase in blood pressure with phenylephrine
[16] = group III (coronary artery disease with ventricular dysfunction), with the increase in blood pressure

COc1ccc(OC)c(C(O)C(C)N)c1 (stereo not drawn) [Methoxamine, methoxamine]
Change measured using ejection fraction [1]: −5.0%
Change in cardiac contractility, method of this invention [2]: 1.4%
Change in cardiac contractility, ejection fraction [3]: −10.4%
Change in cardiac contractility, method of this invention [4]: 3.3%

O=[N+]([O-])O [Nitrate]
Change measured using ejection fraction [1]: 5.0%
Change in cardiac contractility, method of this invention [4]: −1.7%

COc1ccc(CCN(C)CCCC(C#N)(c2ccc(OC)c(OC)c2)C(C)C)cc1OC (stereo not drawn) [Verapamil, verapamil]
Method of This Invention Avg. Value [5]: 77.1
Change in contractile state, method of this invention [5]: −23%
ESP/ESV Avg. Value [6]: 5.1 mm Hg per ml
EF Avg. Value [6]: 39.2 percentage
Change in contractile state, ESP/ESV [6]: −38.5%
Change in contractile state, dP/dt [6]: −39.9%
Change in contractile state, ejection fraction [6]: −10.9%

CC(CCc1ccc(O)cc1)NCCc1ccc(O)c(O)c1 (stereo not drawn) [Dobutamine, dobutamine]
Method of This Invention Avg. Value [5]: 111.7
Change in contractile state, method of this invention [5]: 11.7%
Change in cardiac contractility, method of this invention [2]: 27.5%
ESP/ESV Avg. Value [6]: 18.5 mm Hg per ml
EF Avg. Value [6]: 54.8 percentage
Change in contractile state, ESP/ESV [6]: 150%
Change in contractile state, dP/dt [6]: 34.1%
Change in contractile state, ejection fraction [6]: 17.1%
Alteration in cardiac contractility, ESP/ESV [7]: 32%
Alteration in cardiac contractility, ejection fraction [7]: 15%
Change in cardiac contractility, ESP/ESV [3]: 57.6%
Change in cardiac contractility, ejection fraction [3]: 12.8%
Alteration in cardiac contractility, method of this invention [8]: 23%

CC(C)NCC(O)c1ccc(O)c(O)c1 (stereo not drawn) [Isoproterenol, isoproterenol]
Vcf Avg. Value (velocity of shortening) [9]: 2.83 circulation per second
dP/dT Avg. Value [9]: 5430 mm Hg per second
Change, Vcf [9]: 53%
Change, dP/dt [9]: 55%
Change, dP/dt DP40 [9]: 56%
Method of This Invention Avg. Value [10]: 120.3
Change, method of the present invention [10]: 20.3%

angiotensin
Alteration in cardiac contractility, ESP/ESV [7]: 9.1%
Alteration in cardiac contractility, ejection fraction [7]: −10.3%
SV_v, stroke volume ([7]; individual cases 1 to 8 receiving angiotensin, one line per case, control mean 40): 41 and 38 and 30 and 34 and 40 and 50 and 36 and 60
Pre_v, preload (end-diastolic volume) ([7]; individual cases 1 to 8 receiving angiotensin, one line per case, control mean 70): 68 and 119 and 66 and 78 and 79 and 82 and 95 and 93
After_v, afterload (systolic pressure) ([7]; individual cases 1 to 8 receiving angiotensin, one line per case, control mean 109): 142 (2×) and 155 and 176 and 164 and 156 and 145 and 125
Alteration in cardiac contractility, method of this invention [8]: 0.4%
C, cardiac contractility calculated with the method of this invention ([8]; individual cases 1 to 8 during angiotensin treatment, one line per case, control state C=100): 115.24 and 63.33 and 95.99 and 88.76 and 100.71 and 116.54 and 73.04 and 117.72

O=[N+]([O-])OCC(CO[N+](=O)[O-])O[N+](=O)[O-] [Nitroglycerin, nitroglycerin]
Alteration in cardiac contractility, ESP/ESV [7]: 9%
Alteration in cardiac contractility, ejection fraction [7]: 8.3%
Alteration in cardiac contractility, method of this invention [8]: −4%

CC(C)NCC(O)COc1cccc2ccccc12 (stereo not drawn) [Propranolol, propranolol]
Vcf Avg. Value (velocity of shortening) [9]: 1.80 circulation per second
dP/dT Avg. Value [9]: 3000 mm Hg per second
Change, Vcf [9]: −18%
Change, dP/dt [9]: −18%
Change, dP/dt DP40 [9]: −13%
Change in inotropic state, ESP/ESV [11]: −32%
Change in inotropic state, P/V ratio [11]: −28%
Change in inotropic state, dP/dt [11]: −20%
Change in inotropic state, dP/dt/TP [11]: −19%
Change in inotropic state, ejection fraction [11]: −19%
Change in inotropic state, velocity of shortening [11]: −32%
Method of This Invention Avg. Value [10]: 95.2
Change, method of the present invention [10]: −4.8%
Change in cardiac contractility, method of the present invention [12]: −17%

CNC[C@H](O)c1cccc(O)c1 [Phenylephrine, phenylephrine]
Vcf Avg. Value (velocity of shortening) [9]: 1.61 circulation per second
dP/dT Avg. Value [9]: 3670 mm Hg per second
Change, Vcf [9]: −26%
Change, dP/dt [9]: −2%
Change, dP/dt DP40 [9]: 2%
EF Avg. Value ([13]; Example 5, CAD + VD): 50.5 percentage
ESP/ESV Avg. Value ([13]; Example 5, CAD + VD): 5.0 mm Hg per ml
EF Avg. Value ([13]; Example 5, CAD): 64.0 percentage
ESP/ESV Avg. Value ([13]; Example 5, CAD): 9.9 mm Hg per ml
EF Avg. Value ([13]; Example 5, Healthy): 67.5 percentage
ESP/ESV Avg. Value ([13]; Example 5, Healthy): 10.4 mm Hg per ml
Change in ejection fraction [13, 15]: −0.1%
Fall in ESP/ESV [13, 16]: −51.9%
Fall in ejection fraction [13, 16]: −25.3%
Method of This Invention Avg. Value ([14]; Example 5, CAD): 107.3
Method of This Invention Avg. Value ([14]; Example 5, CAD + VD): 84.2
Method of This Invention Avg. Value ([14]; Example 5, Healthy): 110.4
Change in cardiac contractility, method of the present invention [14, 15]: 10.4%
Fall in cardiac contractility, method of this invention [14, 16]: −15.8%
Method of This Invention Avg. Value [10]: 100.8
Change, method of the present invention [10]: 0.8%
